Drawing on publication PMC5430738, “Psiguajadials A–K: Unusual Psidium Meroterpenoids as Phosphodiesterase-4 Inhibitors from the Leaves of Psidium guajava” (Scientific Reports, 2017), this text covers IC50 for 28 compounds.

For the assay, the target named is T1, PDE4D2 (Homo sapiens, UniProt Q08499).
T1 construct: human PDE4D2 (catalytic domain, residues 86 –413); made in house; host or cells: E. coli BL21 (Codonplus)
Put plainly: PDE4D2 enzymatic inhibition assay (3H-cAMP substrate). Type of assay: biochemical. To be noted: human PDE4D2 catalytic domain, 25 °C, 15 min, read-out: IC50 against PDE4D2. An excerpt:
The protocols for expression, purification, and enzymatic assays of PDE4D2 were similar to those we described previously. More details about the experimental procedures are provided in Supplementary S3.
S3. Experimental section Extraction and isolation and PDE4D assay
S3.1. Extraction and isolation […]
S3.2. Expression and purification of PDE4D2 prot ein
subcloned into the expression vector pET15b. All these resultant plasmids were transformed into E.
coli strain BL21 (Codonplus) for over expression. The E. coli cells carrying these plasmids were
grown in LB medium at 37 /g113C to OD600 = 0.7, and then 0.1 mM isopropyl
/g69-D-thiogalactop yranoside was added for further growth at 16 /g113C for 20–40 h. The recombinant
protein was purified by Ni-NTA column (Qiagen).
The enz ymatic activities of PDE4D cat al ytic domain and the inhibition of PDE4D by extracted
reactions were occured in mixture containing 50 mM Tris/HCl (pH 7.5), 10 mM MgCl2, 0.5 mM
DTT at room temperature (25 /g113C) for 15 min. The reactions were terminated by addition of 0.2 M
Zn S O 4 and Ba(OH)2. The reaction product 3H-AMP was precipitated out, while unreacted
3H-cAMP remained in the supernatant. The mechanism was illustrated as shown below (Scheme
S3.2). Radioactivity in the supernatant was measured in 2.5 mL Ultima Gold liquid scintillation
repeated at least three times. The IC 50 values were calculated by nonlinear regression. As a […]

T1 sequence (Q08499 388-715): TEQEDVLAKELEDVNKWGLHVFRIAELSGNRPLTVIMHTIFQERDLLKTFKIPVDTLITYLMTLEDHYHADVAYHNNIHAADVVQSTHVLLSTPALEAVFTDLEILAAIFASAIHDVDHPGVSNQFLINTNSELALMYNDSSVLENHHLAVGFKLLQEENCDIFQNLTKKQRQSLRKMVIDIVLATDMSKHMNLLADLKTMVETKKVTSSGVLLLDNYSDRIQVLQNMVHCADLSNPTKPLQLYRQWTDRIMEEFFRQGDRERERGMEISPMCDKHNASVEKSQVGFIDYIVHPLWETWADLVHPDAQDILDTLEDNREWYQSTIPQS

As to `CC1=CCC(C)(C)C=CCC2(C)Oc3c(C=O)c(O)c(C=O)c(O)c3C(c3ccccc3)C2CC1` (single isomer, unassigned; (-)) [Compound 14, (−)-guajadial B], the IC50 is greater than 50000 nM.

In the case of `CC1(C)CC2C1CCC13CC2(C)CCC1C(c1ccccc1)c1c(O)c(C=O)c(O)c(C=O)c1O3` (stereo not shown) [Compound 6, Psiguajadial F], the IC50 is 2630 ± 130 nM.

As to `CC1(C)C2CCC3(CC(c4ccccc4)c4c(O)c(C=O)c(O)c(C=O)c4O3)C1C2` (stereo not shown) [Compound 28, guadial C], the half-maximal inhibitory concentration (IC50) worked out at 17100 ± 960 nM.

Take `CC1=CCC(C)(C)C=CCC2(C)Oc3c(C=O)c(O)c(C=O)c(O)c3C(c3ccccc3)C2CC1` (single isomer, unassigned; (+)) [Compound 15, (+)-guajadial B]: the half-maximal inhibitory concentration (IC50) is greater than 50000 nM.

With `CC(C)C1CCC(C)C2CCC3(C=C12)CC(c1ccccc1)c1c(O)c(C=O)c(O)c(C=O)c1O3` (stereo not shown) [Compound 21, Guajadial C], the IC50 was 2280 ± 110 nM.

Regarding `C=C1CCC2Cc3c(O)c(C=O)c(O)c(C(=O)c4ccccc4)c3OC2(C)CCC2C1CC2(C)C` (stereo not shown) [Compound 4, Psiguajadial D], the IC50 stood at 4140 ± 260 nM.

In the case of `CC(C)C1CCC(C)C2CCC3(C=C12)CC(c1ccccc1)c1c(O)c(C=O)c(O)c(C=O)c1O3` (stereo not shown) [Compound 9, Psiguajadial I], the IC50 was 2510 ± 170 nM.

As to `C=C1CCC2Cc3c(O)c(C(=O)c4ccccc4)c(O)c(C=O)c3OC2(C)CCC2C1CC2(C)C` (stereo not shown) [Compound 17, guapsidial A], the IC50 worked out at 5610 ± 510 nM.

`CC1(C)C2CC3C(c4ccccc4)c4c(O)c(C=O)c(O)c(C=O)c4OC3(C)C1C2` (stereo not shown) [Compound 27, guadial B]: the IC50 was greater than 50000 nM.

On to `CC(C)C1CCC(C)C23CC4C(c5ccccc5)c5c(O)c(C=O)c(O)c(C=O)c5OC4(C)C2C13` (stereo not shown) [Compound 2, Psiguajadial B], for which the IC50 turned out to be 5030 ± 330 nM.

Take `CC1=CCCC2(C)Oc3c(C=O)c(O)c(C=O)c(O)c3C(c3ccccc3)C2C2C(CC1)C2(C)C` (stereo not shown) [Compound 12, Guajavadial C]: the IC50 turned out to be 4330 ± 210 nM.

In the case of `CC(C)C12CCC3(CC(c4ccccc4)c4c(O)c(C=O)c(O)c(C=O)c4O3)C1C2` (stereo not shown) [Compound 26, guadial A], the IC50 was determined as 2700 ± 150 nM.

For the compound `CC(C)C12CCC3(CC(c4ccccc4)c4c(O)c(C=O)c(O)c(C=O)c4O3)C1C2` (stereo not shown) [Compound 11, Psiguajadial K], the IC50 was 3680 ± 270 nM.

`CC(C)C1CCC(C)C2CCC3(C=C12)CC(c1ccccc1)c1c(O)c(C=O)c(O)c(C=O)c1O3` (stereo not shown) [Compound 8, Psiguajadial H]: the IC50 worked out at 1810 ± 90 nM.

As for `CC(C)C1CCC(C)C2CC3C(c4ccccc4)c4c(O)c(C=O)c(O)c(C=O)c4OC3(C)C=C12` (stereo not shown) [Compound 24, Guajadial F], the IC50 was 2670 ± 170 nM.

`C=C1CCC2C(c3ccccc3)c3c(O)c(C=O)c(O)c(C=O)c3OC2(C)CCC2C1CC2(C)C` (stereo not shown) [Compound 7, Psiguajadial G]: the IC50 is 1340 ± 330 nM.

With `CC(C)C12CC3C(c4ccccc4)c4c(O)c(C=O)c(O)c(C=O)c4OC3(C)C1C2` (stereo not shown) [Compound 25, guajavadial A], the IC50 worked out at 2010 ± 70 nM.

Take `CC(C)C1CCC(C)C2CC3C(c4ccccc4)c4c(O)c(C=O)c(O)c(C=O)c4OC3(C)C=C12` (stereo not shown) [Compound 10, Psiguajadial J]: the IC50 was 2530 ± 330 nM.

As to `C=C1CCC2C(c3ccccc3)c3c(O)c(C=O)c(O)c(C=O)c3OC2(C)CCC2C1CC2(C)C` (stereo not shown) [Compound 20, psiguajadial L], the IC50 was 1370 ± 70 nM.

In the case of `CC1=C2C3CC(C)(C(c4ccccc4)c4c(O)c(C=O)c(O)c(C=O)c4O3)C2C2C(CC1)C2(C)C` (stereo not shown) [Compound 3, Psiguajadial C], the IC50 worked out at 4500 ± 280 nM.

As to `CC(C)C1CCC(C)C23CCC4(CC(c5ccccc5)c5c(O)c(C=O)c(O)c(C=O)c5O4)C2C13` (stereo not shown) [Compound 1, Psiguajadial A], the 50% inhibitory concentration (IC50) amounted to 3110 ± 100 nM.

On to `CC1=CCCC2(C)C(c3ccccc3)c3c(O)c(C=O)c(O)c(C=O)c3OC2C2C(CC1)C2(C)C` (stereo not shown) [Compound 13, psiguadial D], for which the concentration for half-maximal inhibition (IC50) came out at 3420 ± 210 nM.

In the case of `CC1=CCCC2(C)C(c3ccccc3)c3c(O)c(C=O)c(O)c(C=O)c3OC2C2C(CC1)C2(C)C` (stereo not shown) [Compound 5, Psiguajadial E], the half-maximal inhibitory concentration (IC50) came out at 3250 ± 200 nM.

For `C=C1CCC2C(c3ccccc3)c3c(O)c(C=O)c(O)c(C=O)c3OC2(C)CCC2C1CC2(C)C` (stereo not shown) [Compound 19, guajadial], the concentration for half-maximal inhibition (IC50) worked out at 1620 ± 80 nM.

For `CC(C)C1CCC(C)C2CC3C(c4ccccc4)c4c(O)c(C=O)c(O)c(C=O)c4OC3(C)C=C12` (stereo not shown) [Compound 23, Guajadial E], the IC50 stood at 2730 ± 150 nM.

In the case of `CC1CCC2C(C3C4(C)CCC13Oc1c(C=O)c(O)c(C=O)c(O)c1C4c1ccccc1)C2(C)C` (stereo not shown) [Compound 16, psiguadial A], the half-inhibitory concentration (IC50) stood at 7260 ± 410 nM.

For the compound `C=C1CCC2C(c3ccccc3)c3c(O)c(C=O)c(O)c(C=O)c3OC2(C)CCC2C1CC2(C)C` (stereo not shown) [Compound 18, psidial A], the IC50 is 1600 ± 90 nM.

Regarding `CC(C)C1CCC(C)C2CCC3(C=C12)CC(c1ccccc1)c1c(O)c(C=O)c(O)c(C=O)c1O3` (stereo not shown) [Compound 22, Guajadial D], the IC50 came out at 1930 ± 110 nM.
